# Experimental data as given in PMC12102759 (Protein Science : A Publication of the Protein Society, 2025).
# Like-named read-outs stand apart in the source and are kept apart here.
# System: PABPC1 PABC
# Type: binding, human
# Settings: DMS-BM library, bait PABPC1 PABC, row aa = residue at this position; for DMS-derived PSSM value, position R14 / DMS-derived PSSM value (averaged), position R12 / DMS-derived PSSM value, position R12: R = wild type; for DMS-derived PSSM value (averaged), position T1 / DMS-derived PSSM value, position T3 / DMS-derived PSSM value, position T1: T = wild type; for DMS-derived PSSM value, position K9: K = wild type
# [1] = prey ATXN2, peptide KSTLNPNAKEFNPRSF
# [2] = prey ATXN2, TLNPNAKEFNPRSF(averaged) over the two overlapping peptides
# [3] = prey ATXN2, peptide KSTLNPNAKEFNPRSF, F = wild type
# [4] = prey ATXN2, peptide TLNPNAKEFNPRSFSQ, N = wild type
# [5] = prey ATXN2, peptide TLNPNAKEFNPRSFSQ, S = wild type
# [6] = prey ATXN2, TLNPNAKEFNPRSF(averaged) over the two overlapping peptides, F = wild type
# [7] = prey ATXN2, peptide TLNPNAKEFNPRSFSQ, P = wild type
# [8] = prey ATXN2, TLNPNAKEFNPRSF(averaged) over the two overlapping peptides, A = wild type
# [9] = prey ATXN2, peptide KSTLNPNAKEFNPRSF, P = wild type
# [10] = prey ATXN2, TLNPNAKEFNPRSF(averaged) over the two overlapping peptides, N = wild type
# [11] = prey ATXN2, peptide KSTLNPNAKEFNPRSF, N = wild type
# [12] = prey ATXN2, peptide KSTLNPNAKEFNPRSF, L = wild type
# [13] = prey ATXN2, peptide TLNPNAKEFNPRSFSQ
# [14] = prey ATXN2, peptide KSTLNPNAKEFNPRSF, S = wild type
# [15] = prey ATXN2, TLNPNAKEFNPRSF(averaged) over the two overlapping peptides, P = wild type
# [16] = prey ATXN2, peptide TLNPNAKEFNPRSFSQ, A = wild type
# [17] = prey ATXN2, peptide TLNPNAKEFNPRSFSQ, F = wild type
substance,measurement,setting,value
KSTLNPNAKEFNPRSF R14P (KSTLNPNAKEFNPPSF),"DMS-derived PSSM value, position R14",[1],0.00803
TLNPNAKEFNPRSF(averaged) T1K (KLNPNAKEFNPRSF),"DMS-derived PSSM value (averaged), position T1",[2],0.01914
KSTLNPNAKEFNPRSF K9T (KSTLNPNATEFNPRSF),"DMS-derived PSSM value, position K9",[1],0.02286
KSTLNPNAKEFNPRSF F16A (KSTLNPNAKEFNPRSA),"DMS-derived PSSM value, position F16",[3],0.08044
TLNPNAKEFNPRSFSQ N10E (TLNPNAKEFEPRSFSQ),"DMS-derived PSSM value, position N10",[4],0.00197
KSTLNPNAKEFNPRSF T3Q (KSQLNPNAKEFNPRSF),"DMS-derived PSSM value, position T3",[1],0
TLNPNAKEFNPRSFSQ S13F (TLNPNAKEFNPRFFSQ),"DMS-derived PSSM value, position S13",[5],0.004247
TLNPNAKEFNPRSF(averaged) R12P (TLNPNAKEFNPPSF),"DMS-derived PSSM value (averaged), position R12",[2],0.006659
TLNPNAKEFNPRSF(averaged) F14T (TLNPNAKEFNPRST),"DMS-derived PSSM value (averaged), position F14",[6],0.01392
TLNPNAKEFNPRSFSQ P4I (TLNINAKEFNPRSFSQ),"DMS-derived PSSM value, position P4",[7],0.2422
TLNPNAKEFNPRSF(averaged) S13Y (TLNPNAKEFNPRYF),"DMS-derived PSSM value (averaged), position S13","prey ATXN2, TLNPNAKEFNPRSF(averaged) over the two overlapping peptides, S = wild type",0.0362
TLNPNAKEFNPRSF(averaged) F9Y (TLNPNAKEYNPRSF),"DMS-derived PSSM value (averaged), position F9",[6],0.1609
TLNPNAKEFNPRSF(averaged) A6L (TLNPNLKEFNPRSF),"DMS-derived PSSM value (averaged), position A6",[8],0
KSTLNPNAKEFNPRSF P6A (KSTLNANAKEFNPRSF),"DMS-derived PSSM value, position P6",[9],0
TLNPNAKEFNPRSF(averaged) N10W (TLNPNAKEFWPRSF),"DMS-derived PSSM value (averaged), position N10",[10],0.1093
KSTLNPNAKEFNPRSF N12Y (KSTLNPNAKEFYPRSF),"DMS-derived PSSM value, position N12",[11],0.1026
KSTLNPNAKEFNPRSF L4N (KSTNNPNAKEFNPRSF),"DMS-derived PSSM value, position L4",[12],0
TLNPNAKEFNPRSF(averaged) F14N (TLNPNAKEFNPRSN),"DMS-derived PSSM value (averaged), position F14",[6],0.05683
TLNPNAKEFNPRSF(averaged) T1G (GLNPNAKEFNPRSF),"DMS-derived PSSM value (averaged), position T1",[2],0.09
TLNPNAKEFNPRSFSQ R12W (TLNPNAKEFNPWSFSQ),"DMS-derived PSSM value, position R12",[13],0.01782
TLNPNAKEFNPRSFSQ P11Y (TLNPNAKEFNYRSFSQ),"DMS-derived PSSM value, position P11",[7],0.04593
KSTLNPNAKEFNPRSF T3I (KSILNPNAKEFNPRSF),"DMS-derived PSSM value, position T3",[1],0.1667
KSTLNPNAKEFNPRSF N12W (KSTLNPNAKEFWPRSF),"DMS-derived PSSM value, position N12",[11],0.1585
TLNPNAKEFNPRSF(averaged) N3K (TLKPNAKEFNPRSF),"DMS-derived PSSM value (averaged), position N3",[10],0
TLNPNAKEFNPRSF(averaged) N10L (TLNPNAKEFLPRSF),"DMS-derived PSSM value (averaged), position N10",[10],0.09868
KSTLNPNAKEFNPRSF P13Q (KSTLNPNAKEFNQRSF),"DMS-derived PSSM value, position P13",[9],0.08339
KSTLNPNAKEFNPRSF S15K (KSTLNPNAKEFNPRKF),"DMS-derived PSSM value, position S15",[14],0
TLNPNAKEFNPRSFSQ L2A (TANPNAKEFNPRSFSQ),"DMS-derived PSSM value, position L2","prey ATXN2, peptide TLNPNAKEFNPRSFSQ, L = wild type",0
KSTLNPNAKEFNPRSF E10V (KSTLNPNAKVFNPRSF),"DMS-derived PSSM value, position E10","prey ATXN2, peptide KSTLNPNAKEFNPRSF, E = wild type",0.1837
TLNPNAKEFNPRSF(averaged) P11A (TLNPNAKEFNARSF),"DMS-derived PSSM value (averaged), position P11",[15],0.00277
TLNPNAKEFNPRSFSQ S15E (TLNPNAKEFNPRSFEQ),"DMS-derived PSSM value, position S15",[5],0.1009
KSTLNPNAKEFNPRSF F16Q (KSTLNPNAKEFNPRSQ),"DMS-derived PSSM value, position F16",[3],0.002875
KSTLNPNAKEFNPRSF P6H (KSTLNHNAKEFNPRSF),"DMS-derived PSSM value, position P6",[9],0.01713
KSTLNPNAKEFNPRSF T3Y (KSYLNPNAKEFNPRSF),"DMS-derived PSSM value, position T3",[1],0.005309
KSTLNPNAKEFNPRSF P13E (KSTLNPNAKEFNERSF),"DMS-derived PSSM value, position P13",[9],0.006076
KSTLNPNAKEFNPRSF K9Q (KSTLNPNAQEFNPRSF),"DMS-derived PSSM value, position K9",[1],0.02634
KSTLNPNAKEFNPRSF F11K (KSTLNPNAKEKNPRSF),"DMS-derived PSSM value, position F11",[3],0.006092
TLNPNAKEFNPRSFSQ A6G (TLNPNGKEFNPRSFSQ),"DMS-derived PSSM value, position A6",[16],0
KSTLNPNAKEFNPRSF K9G (KSTLNPNAGEFNPRSF),"DMS-derived PSSM value, position K9",[1],0.006369
TLNPNAKEFNPRSFSQ N3K (TLKPNAKEFNPRSFSQ),"DMS-derived PSSM value, position N3",[4],0
TLNPNAKEFNPRSFSQ T1H (HLNPNAKEFNPRSFSQ),"DMS-derived PSSM value, position T1",[13],0.01756
TLNPNAKEFNPRSF(averaged) T1Y (YLNPNAKEFNPRSF),"DMS-derived PSSM value (averaged), position T1",[2],0.168
TLNPNAKEFNPRSFSQ N3V (TLVPNAKEFNPRSFSQ),"DMS-derived PSSM value, position N3",[4],0
TLNPNAKEFNPRSFSQ F9T (TLNPNAKETNPRSFSQ),"DMS-derived PSSM value, position F9",[17],0.05894
KSTLNPNAKEFNPRSF L4M (KSTMNPNAKEFNPRSF),"DMS-derived PSSM value, position L4",[12],0.3054
TLNPNAKEFNPRSF(averaged) R12D (TLNPNAKEFNPDSF),"DMS-derived PSSM value (averaged), position R12",[2],0.02577
TLNPNAKEFNPRSFSQ N5S (TLNPSAKEFNPRSFSQ),"DMS-derived PSSM value, position N5",[4],0.00244
TLNPNAKEFNPRSF(averaged) N3T (TLTPNAKEFNPRSF),"DMS-derived PSSM value (averaged), position N3",[10],0.009966
TLNPNAKEFNPRSFSQ N10M (TLNPNAKEFMPRSFSQ),"DMS-derived PSSM value, position N10",[4],0.1
TLNPNAKEFNPRSF(averaged) N5P (TLNPPAKEFNPRSF),"DMS-derived PSSM value (averaged), position N5",[10],4.119e-5
KSTLNPNAKEFNPRSF R14M (KSTLNPNAKEFNPMSF),"DMS-derived PSSM value, position R14",[1],0.00585
KSTLNPNAKEFNPRSF S15Y (KSTLNPNAKEFNPRYF),"DMS-derived PSSM value, position S15",[14],0.02596
KSTLNPNAKEFNPRSF R14Y (KSTLNPNAKEFNPYSF),"DMS-derived PSSM value, position R14",[1],0.04467
KSTLNPNAKEFNPRSF P13I (KSTLNPNAKEFNIRSF),"DMS-derived PSSM value, position P13",[9],0.01276
TLNPNAKEFNPRSFSQ T1S (SLNPNAKEFNPRSFSQ),"DMS-derived PSSM value, position T1",[13],0.004758
TLNPNAKEFNPRSF(averaged) A6Y (TLNPNYKEFNPRSF),"DMS-derived PSSM value (averaged), position A6",[8],0
TLNPNAKEFNPRSF(averaged) E8V (TLNPNAKVFNPRSF),"DMS-derived PSSM value (averaged), position E8","prey ATXN2, TLNPNAKEFNPRSF(averaged) over the two overlapping peptides, E = wild type",0.141
TLNPNAKEFNPRSFSQ N10H (TLNPNAKEFHPRSFSQ),"DMS-derived PSSM value, position N10",[4],0.0229
KSTLNPNAKEFNPRSF A8I (KSTLNPNIKEFNPRSF),"DMS-derived PSSM value, position A8","prey ATXN2, peptide KSTLNPNAKEFNPRSF, A = wild type",0
KSTLNPNAKEFNPRSF S15P (KSTLNPNAKEFNPRPF),"DMS-derived PSSM value, position S15",[14],0.04178
TLNPNAKEFNPRSFSQ R12N (TLNPNAKEFNPNSFSQ),"DMS-derived PSSM value, position R12",[13],0.04731
TLNPNAKEFNPRSFSQ P4V (TLNVNAKEFNPRSFSQ),"DMS-derived PSSM value, position P4",[7],0.4281
TLNPNAKEFNPRSFSQ A6S (TLNPNSKEFNPRSFSQ),"DMS-derived PSSM value, position A6",[16],0.08307
KSTLNPNAKEFNPRSF L4V (KSTVNPNAKEFNPRSF),"DMS-derived PSSM value, position L4",[12],0.01089
TLNPNAKEFNPRSFSQ F9K (TLNPNAKEKNPRSFSQ),"DMS-derived PSSM value, position F9",[17],0
TLNPNAKEFNPRSFSQ E8P (TLNPNAKPFNPRSFSQ),"DMS-derived PSSM value, position E8","prey ATXN2, peptide TLNPNAKEFNPRSFSQ, E = wild type",0.2652
TLNPNAKEFNPRSF(averaged) P11H (TLNPNAKEFNHRSF),"DMS-derived PSSM value (averaged), position P11",[15],0.07852
